According to article PMC12068008 (International Journal of Molecular Sciences, 2024):

Columns and labels:
physchem = assay type: physicochemical; settings: n-octanol/deionized water, shake flask, 25 °C, 1 × 10^−4 M, read-out: logP, experimentally obtained
Protocol: To measure the lipophilicity (expressed as the partition coefficient) of the synthesized compounds and their constituents, using a “shake-flask” method, a two-phase system composed of n-octanol and deionized water was used. The stock solutions of the compounds were diluted with water to the concentration of 1 × 10^−4 M, and this solution was used for further investigation. […] The concentration of the compounds was calculated from their extinction coefficient at 260 nm that was previously determined.

[1] = Metal-chelating assay, binding stoichiometry (molar ratio method), Cu2+; assay type: physicochemical; settings: ethanol, 30 min, compound 5 × 10^−5 M, one ion coordinates with two molecules
Protocol: (§1) Binding stoichiometry was determined using the molar ratio method, with increasing concentrations of metal ions (from 0 to 1.5 × 10^−4 M) (Figures S1 and S2). Absorption spectra were collected 30 min after mixing. The change in absorption at the wavelength of maximum absorbance for the formed complex was plotted against the metal ion (M^2+ = Cu^2+, Zn^2+, and Fe^2+) to compound ratio (cM^2+/ccompound) and is presented in Figure 3. This graph allows the determination of the binding ratio between the newly synthesized compounds and metal ions. […] In contrast, the results for Fe^2+ indicate that only one Fe^2+ ion can bind to both compounds.
(§2) The metal-chelating ability of synthesized compounds in ethanol was assessed using UV/Vis spectrophotometer (Lambda 35, Perkin Elmer) recording spectra over a wavelength range of 230–600 nm in a 1 cm quartz cell. The mixture of compound at 5 × 10^−5 M of final concentration and metal ions at 1 × 10^−4 M of final concentration was incubated for 30 min at room temperature. The tested temperature was 25 °C. […]
(§3) The binding stoichiometry was assessed by adding increasing concentrations of metal ions (0–1.5 × 10^−4 M) to a fixed concentration of compound (5 × 10^−5 M) and incubating the mixture for 30 min at room temperature. The spectra were then measured as described above, and the ligand-to-metal chelation ratio in the complex was calculated.

[2] = Metal-chelating assay, binding stoichiometry (molar ratio method), Zn2+; assay type: physicochemical; settings: ethanol, 30 min, compound 5 × 10^−5 M, one ion coordinates with two molecules
Protocol: as §1, §2, §3

[3] = Metal-chelating assay, binding stoichiometry (molar ratio method), Fe2+; assay type: physicochemical; settings: ethanol, 30 min, compound 5 × 10^−5 M
Protocol: as §1, §2, §3

eeAChE = eeAChE (Electrophorus electricus, UniProt O42275); assay: biochemical; settings: at 1 × 10^−4 M, 37 °C; for inhibition at 100 µM: read-out: Percentage Inhibition AChE
Protocol: The abilities of compounds to inhibit AChE and BuChE activity were determined following Ellman’s procedure, with AChI and BuChI as the enzyme substrate, respectively, and DTNB as a chromogenic reagent. AChE’s and BuChE’s working solutions were prepared at 20 mM TRIS and deionized water, respectively. AChI and BuChI solutions were prepared in deionized water. […] Stock solutions (10 mM) of investigated compounds were prepared daily by dissolving solid compounds in DMSO. The reaction mixture containing phosphate buffer, DTNB, enzyme, and compound was preincubated 30 min at 37 °C. After the preincubation time, the enzyme reaction was initiated by adding appropriate substrate and left to incubate for 6 min. After incubation, 0.1 M SDS was added to stop the reaction. […] A blank assay, containing all components except the enzyme, was used to account for non-enzyme reactions. The control solution contained all components except the inhibitor. All experiments were conducted in triplicate, and the results are expressed as the mean percentage enzyme activity compared to the control value. IC50 values were determined graphically using Origin 9 Microsoft Windows.

MRC-5 cells = assay: SRB assay, MRC-5 cells; assay type: cell-based; settings: Homo sapiens, MRC5; 72 h after treatment, SRB; read-out: IC50 MRC
Protocol: (§4) Two human breast cancer cell lines, MDA-MB-231 (HTB-26) and MDA-MB-468 (HTB-132), human cervical cancer cell line HeLa (CCL-2), and MRC-5 (CCL-171) fibroblasts were purchased from the American Type Culture Collection (ATCC, Manassas, VA, USA). All cell lines were cultured in Dulbecco’s Modified Eagle’s Medium (DMEM) with 4500 mg/L glucose and L-glutamine (Capricorn Scientific, Ebsdorfergrund, Germany), supplemented with 10% foetal bovine serum (PAN-Biotech, Aidenbach, Germany), 10,000 U/mL penicillin, and 10 mg/mL streptomycin solution (Capricorn Scientific) under standard conditions at 37 °C in a humidified 5% CO2 atmosphere (ESCO, Lifesciences Group, Singapore).
Cells were seeded on a 96-well plate (Thermo Fisher Scientific, Waltham, MA, USA) at 2 × 10^3 cells per well in DMEM medium. For the analysis of the concentration- and time-dependent effect of the analysed compounds, cell monolayers were treated 24 h after seeding with concentrations 1 × 10^−6, 1 × 10^−5, and 1 × 10^−4 M for 24, 48, or 72 h. Cell viability was detected using sulforhodamine B (SRB) assay, based on the staining of cellular proteins. The assay was performed according to the procedure described by Skehan et al.. The cells were fixed with 10% trichloroacetic acid (TCA, CARLO ERBA Reagents GmbH, Emmendingen, Germany) for 1 h at 4 °C, washed with water, and stained for 15 min with 0.4% SRB (Sigma-Aldrich Chemie GmbH, Steinheim, Germany) in 1% acetic acid. The unbound SRB dye was rinsed with 1% acetic acid, while the protein-bound dye was extracted with a 10 mM Tris base (Sigma-Aldrich). The absorbance was measured at 550 nm with a reference wavelength of 690 nm in a microplate reader (Wallac, VICTOR2 1420 Multilabel counter, PerkinElmer, Turku, Finland). The results were expressed as a percentage of the control, where the cell growth of the control is set to 100%. […] The selectivity index (SI) was determined according to the following formula:(2) SI=IC50 for fibroblast cell line/IC50 for tumour cell line […]

MDA-MB-468 cells = assay: SRB assay, MDA-MB-468 cells; assay type: cell-based, human; settings: for IC50: Homo sapiens, MDA-MB-468, 72 h after treatment, SRB, read-out: IC50 MDA-468
Protocol: as §4
Cells were seeded on a 96-well plate (Thermo Fisher Scientific, Waltham, MA, USA) at 2 × 10^3 cells per well in DMEM medium. For the analysis of the concentration- and time-dependent effect of the analysed compounds, cell monolayers were treated 24 h after seeding with concentrations 1 × 10^−6, 1 × 10^−5, and 1 × 10^−4 M for 24, 48, or 72 h. Cell viability was detected using sulforhodamine B (SRB) assay, based on the staining of cellular proteins. The assay was performed according to the procedure described by Skehan et al.. The cells were fixed with 10% trichloroacetic acid (TCA, CARLO ERBA Reagents GmbH, Emmendingen, Germany) for 1 h at 4 °C, washed with water, and stained for 15 min with 0.4% SRB (Sigma-Aldrich Chemie GmbH, Steinheim, Germany) in 1% acetic acid. The unbound SRB dye was rinsed with 1% acetic acid, while the protein-bound dye was extracted with a 10 mM Tris base (Sigma-Aldrich). The absorbance was measured at 550 nm with a reference wavelength of 690 nm in a microplate reader (Wallac, VICTOR2 1420 Multilabel counter, PerkinElmer, Turku, Finland). The results were expressed as a percentage of the control, where the cell growth of the control is set to 100%. IC50, defined as the concentration that caused a 50% loss of cell growth, was calculated by non-linear regression analysis with the ED50plus v1.0 software. The selectivity index (SI) was determined according to the following formula:(2) SI=IC50 for fibroblast cell line/IC50 for tumour cell line
The assay was performed two times in 4 replicates for every experimental group. The statistical significance of differences between treated and untreated cells was estimated by the independent Student’s t-test, with the level of significance set at p < 0.05.

Chain of eeAChE (O42275 24-633): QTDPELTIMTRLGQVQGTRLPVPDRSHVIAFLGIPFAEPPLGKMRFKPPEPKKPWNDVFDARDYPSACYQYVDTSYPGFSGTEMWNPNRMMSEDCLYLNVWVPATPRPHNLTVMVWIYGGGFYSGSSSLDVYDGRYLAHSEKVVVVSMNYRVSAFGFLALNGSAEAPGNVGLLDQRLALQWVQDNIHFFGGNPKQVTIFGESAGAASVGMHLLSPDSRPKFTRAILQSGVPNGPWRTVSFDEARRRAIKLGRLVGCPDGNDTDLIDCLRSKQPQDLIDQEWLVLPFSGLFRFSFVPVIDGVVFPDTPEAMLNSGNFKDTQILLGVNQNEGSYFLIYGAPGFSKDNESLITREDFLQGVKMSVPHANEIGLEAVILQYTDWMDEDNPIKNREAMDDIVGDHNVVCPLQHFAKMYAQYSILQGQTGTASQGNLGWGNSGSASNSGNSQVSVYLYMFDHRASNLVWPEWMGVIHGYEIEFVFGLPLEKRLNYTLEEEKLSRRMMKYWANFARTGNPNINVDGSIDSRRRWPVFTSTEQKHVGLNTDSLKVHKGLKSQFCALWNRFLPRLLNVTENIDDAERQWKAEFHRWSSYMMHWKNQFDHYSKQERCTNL

## O=c1c(O)c(-c2ccc(O)c(O)c2)oc2c(CN3CCc4ccccc4C3)c(O)cc(O)c12 [Compound 2a]
physchem
  logP at 30 min: 3.07
[1]
  binding stoichiometry Cu^2+: 2
[2]
  binding stoichiometry Zn^2+: 2
[3]
  binding stoichiometry Fe^2+ (ions bound): one
eeAChE
  inhibition at 100 µM: 33.3%
MRC-5 cells
  IC50: 55.7 ± 2.78 µM
MDA-MB-468 cells
  IC50: > 200 µM

## COc1cc2c(cc1OC)CN(Cc1c(O)cc(O)c3c(=O)c(O)c(-c4ccc(O)c(O)c4)oc13)CC2 [Compound 2b]
physchem
  logP at 30 min: 2.47
[1]
  binding stoichiometry Cu^2+: 2
[2]
  binding stoichiometry Zn^2+: 2
[3]
  binding stoichiometry Fe^2+ (ions bound): one
eeAChE
  Percentage Inhibition AChE: 15.4%
  inhibition at 100 µM: 15%
MRC-5 cells
  IC50: 16.6 ± 0.83 µM
MDA-MB-468 cells
  IC50: 109 ± 5 µM
MDA-MB-468 cells; highest concentration, 72 h
  highest inhibition of MDA-468 cells: 56.56%
